Test system: NLRP3 inflammasome
Assay: NLRP3 inflammasome activation: ASC-SPECK formation in gramicidin-stimulated THP-1 cells
Assay type: cell-based
Settings: PMA-treated human monocytic THP-1 cells, compound 1 h before 12.5 μg/ml gramicidin, 3-hour treatment
Source text: Activation of the canonical NLRP3 inflammasome requires two steps, priming and activation. A priming signal such as a pathogen activated molecular patterns (PAMPs) or danger-activated molecular patterns (DAMPs) are recognized by Toll-like receptors leads to nuclear factor kappa B (NF-KB)-mediated signaling. […] The second step is activation which induces oligomerization of NLRP3 and subsequent assembly of NLRP3, apoptosis-associated speck-like protein containing a CARD (ASC), and procaspase-1 into an inflammasome complex. This triggers the transformation of procaspase-1 to caspase-1, and the production and secretion of mature IL-1β and IL-18 (Kim et al., J. Inflamm. 2015, 12, 41; Ozaki et al., J. Inflamm. Res. 2015, 8, 15-27; Rabeony et al., Eur. J. Immunol. 2015, 45, 2847). During inflammasome complex assembly, the oligomerization of NLRP3 triggers the nucleation of ASC and an event commonly referred to as “ASC SPECK” formation, as it is identified in the cell as a discrete puncta within the cell after staining and visualization of ASC using common immunocytochemical methods.
The ability of compounds to inhibit NLRP3 inflammasome activation was determined in vitro by monitoring formation of the ASC-SPECK in human monocytic THP-1 cells after stimulation. THP-1 cells (ATCC catalog #TIB-202) were maintained in complete growth media containing Roswell Park Memorial Institute RPMI (ATCC catalog #30-2001), 10% heat inactivated fetal bovine serum, 1× penicillin/streptomycin and 0.05 mM 2-mercaptoethanol. At the start of the assay, undifferentiated THP-1 cells were plated at a density of 20,000 cells per well in a 384-well plate (Poly-D-lysine coated Cell Carrier Ultra microplate, Perkin Elmer catalog #6057500) in complete growth media supplemented with 10 ng/ml phorbol 12-myristate 13-acetate (PMA; Sigma catalog #P8139), and then incubated overnight. The next day, media was replaced with assay media (RPMI (Gibco catalog #11875-093), 0.01% bovine serum albumin (BSA)). Compounds were serially diluted in DMSO and then added to wells one hour prior to the addition of 12.5 μg/ml Gramicidin (Enzo Lifescience, catalog #ALX-350-233-M005). All incubations were carried out at 37° C. (5% CO2/95% air). Following a 3-hour treatment with gramicidin, cells are fixed with 4% paraformaldehyde and stored at 4° C. until immunofluorescence staining.
Immunofluorescence staining: Anti-ASC antibody (MBL catalog #D086-3) was desalted and labeled with Alexa 488 antibody labeling kit (Thermo catalog #A20181) prior to use as described below. After fixation, the following steps were carried out at rt. Cells were first permeabilized with 0.3% polyethylene glycol tert-octylphenyl ether (Triton X-100) in phosphate-buffered saline (PBS) for 15 minutes and then incubated in blocking buffer containing 5% goat serum, 0.3% polyethylene glycol sorbitan monolaurate (Tween-20) and 0.03% sodium azide in PBS for 1 hour. Cells were stained with a mixture of ASC-Alexa 488 antibody (diluted 1:200 in blocking buffer) and nuclear stain DRAQ5 (1:5000 in blocking buffer, Thermo catalog #62251) in blocking buffer for 1 hour. Following a wash with 0.3% polyethylene glycol sorbitan monolaurate (Tween-20) in PBS, plates were imaged with an Opera Phenix High Content Screening System. The number of DRAQ5 positive cells containing ASC SPECKS were quantified in each well.
Data analysis: EC50 values were calculated by standard curve-fitting analysis using an internally developed program in TIBCO Spotfire software.

[1] = Homo sapiens, THP-1, inhibition of ASC SPECK formation
[2] = inhibition of ASC SPECK formation

Cc1cc(C(F)(F)F)cc(O)c1-c1cnc2cn([C@H]3CCS(=O)(=O)C3)nc2n1 [Example 31, 2-[2-[(3S)-1,1-dioxothiolan-3-yl]pyrazolo[3,4-b]pyrazin-6-yl]-3-methyl-5-(trifluoromethyl)phenol]
EC50 [1]: 265 nM

Cc1cc(C(F)(F)F)cc(O)c1-c1cnc2cn(C34CCOC(C)(C3)C4)nc2n1 [Example 15, 3-methyl-2-(2-(1-methyl-2-oxabicyclo[3.1.1]heptan-5-yl)-2H-pyrazolo[3,4-b]pyrazin-6-yl)-5-(trifluoromethyl)phenol]
EC50 [1]: 84 nM

Cc1cc(C(F)(F)F)cc(O)c1-c1cnc2cn(C3COC4(C)CC3C4)nc2n1 (racemic) [Example 19, (R and S)-3-methyl-2-(2-(1-methyl-2-oxabicyclo[3.1.1]heptan-4-yl)-2H-pyrazolo[3,4-b]pyrazin-6-yl)-5-(trifluoromethyl)phenol]
EC50 [1]: 876 nM

Cc1cc(C(F)(F)F)cc(O)c1-c1cnc2cn(C3C4CS(=O)(=O)CC43)nc2n1 (single isomer, unassigned) [Example 54, (1R,5S,6R or 1R,5S,6S)-6-(6-(2-hydroxy-6-methyl-4-(trifluoromethyl)phenyl)-2H-pyrazolo[3,4-b]pyrazin-2-yl)-3-thiabicyclo[3.1.0]hexane 3,3-dioxide]
EC50 [2]: 98 nM

Cc1cc(C(F)(F)F)cc(O)c1-c1cnc2cn(C3CCOC(C)(C)C3)nc2n1 (single isomer, unassigned) [Example 95, (R or S)-2-(2-(2,2-dimethyltetrahydro-2H-pyran-4-yl)-2H-pyrazolo[3,4-b]pyrazin-6-yl)-3-methyl-5-(trifluoromethyl)phenol]
EC50 [2]: 388 nM

Cc1cc(C(F)(F)F)cc(O)c1-c1cnc2cn(C3CCOCC3)nc2n1 [Example 1, 3-methyl-2-(2-(tetrahydro-2H-pyran-4-yl)-2H-pyrazolo[3,4-b]pyrazin-6-yl)-5-(trifluoromethyl)phenol]
EC50 [1]: 71 nM

Cc1cc(C(F)(F)F)cc(O)c1-c1cnc2cn([C@@H]3CCS(=O)(=O)C3)nc2n1 [Example 30, 2-[2-[(3R)-1,1-dioxothiolan-3-yl]pyrazolo[3,4-b]pyrazin-6-yl]-3-methyl-5-(trifluoromethyl)phenol]
EC50 [1]: 407 nM

Cc1cc(C(F)(F)F)cc(O)c1-c1cnc2cn(C3CCOCC34CC4)nc2n1 (single isomer, unassigned) [Example 100, (S or R)-2-(2-(5-oxaspiro[2.5]octan-8-yl)-2H-pyrazolo[3,4-b]pyrazin-6-yl)-3-methyl-5-(trifluoromethyl)phenol]
EC50 [2]: 169 nM

Cc1cc(C(F)(F)F)cc(O)c1-c1cnc2cn(C34CC(C#N)(C3)C4)nc2n1 [Example 8, 3-(6-(2-hydroxy-6-methyl-4-(trifluoromethyl)phenyl)-2H-pyrazolo[3,4-b]pyrazin-2-yl)bicyclo[1.1.1]pentane-1-carbonitrile]
EC50 [1]: 38 nM

Cc1nc2cn(C3CCC(=O)N(C)C3)nc2nc1-c1ccc(C(F)(F)F)cc1O (single isomer, unassigned) [Example 111, (R or S)-5-(6-(2-hydroxy-4-(trifluoromethyl)phenyl)-5-methyl-2H-pyrazolo[3,4-b]pyrazin-2-yl)-1-methylpiperidin-2-one]
EC50 [2]: 175 nM

Cc1cc(C(F)(F)F)cc(O)c1-c1cnc2cn(C34CC3COC4(C)C)nc2n1 (single isomer, unassigned) [Example 76, 2-(2-((1R,5R or 1S,5S)-2,2-dimethyl-3-oxabicyclo[3.1.0]hexan-1-yl)-2H-pyrazolo[3,4-b]pyrazin-6-yl)-3-methyl-5-(trifluoromethyl)phenol]
EC50 [2]: 99 nM

Cc1cc(C(F)(F)F)cc(O)c1-c1cnc2c(C(C)O)n(C3CCC(=O)N(C(C)C)C3)nc2n1 (single isomer, unassigned) [Example 120, (S or R)-5-(6-(2-hydroxy-6-methyl-4-(trifluoromethyl)phenyl)-3-((R or S)-1-hydroxyethyl)-2H-pyrazolo[3,4-b]pyrazin-2-yl)-1-isopropylpiperidin-2-one]
EC50 [2]: 3880 nM

— patent US20250195511A1, “INDAZOLE DERIVATIVES USEFUL AS INHIBITORS OF NOD-LIKE RECEPTOR PROTEIN 3” (Merck Sharp & Dohme LLC, priority 2023, published 2025)
